Results taken from ChEMBL document CHEMBL3804826, “MALT1 Inhibitors May Potentially Treat Lymphomas and Autoimmune Disorders” (ACS Med Chem Lett, 2016).

molecular target: Baculoviral IAP repeat-containing protein 3/Mucosa-associated lymphoid tissue lymphoma translocation protein 1 (Homo sapiens, UniProt Q13489+Q9UDY8); test: Inhibition of cIAP2-MALT1 (unknown origin) expressed in HEK293 cells assessed as inhibition of NFkappaB signaling after 24 hrs by luciferase reporter gene assay; assay type: cell-based
Sequence (Q13489 whole entry, one chain of several): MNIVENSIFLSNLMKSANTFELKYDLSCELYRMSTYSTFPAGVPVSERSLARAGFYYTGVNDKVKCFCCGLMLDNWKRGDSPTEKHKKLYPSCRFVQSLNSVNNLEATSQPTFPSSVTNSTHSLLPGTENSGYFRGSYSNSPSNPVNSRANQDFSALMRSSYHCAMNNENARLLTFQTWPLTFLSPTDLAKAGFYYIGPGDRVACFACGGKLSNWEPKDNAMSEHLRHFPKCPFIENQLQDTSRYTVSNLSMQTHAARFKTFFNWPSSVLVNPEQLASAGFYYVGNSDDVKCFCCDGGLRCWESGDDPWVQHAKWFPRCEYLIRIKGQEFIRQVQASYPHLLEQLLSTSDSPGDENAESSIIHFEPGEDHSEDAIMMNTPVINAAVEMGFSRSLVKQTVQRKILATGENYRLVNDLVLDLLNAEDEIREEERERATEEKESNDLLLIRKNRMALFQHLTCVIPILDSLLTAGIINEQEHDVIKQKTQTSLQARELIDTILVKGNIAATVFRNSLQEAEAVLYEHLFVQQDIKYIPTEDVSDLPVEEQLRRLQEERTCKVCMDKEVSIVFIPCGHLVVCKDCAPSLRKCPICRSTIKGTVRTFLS

Row | Compound | IC50 [nM]
1 | COCC(c1c(NC(=O)Nc2cnc(-n3nccn3)c(Cl)c2)cnc2cc(Cl)nn12)C1CC1 (stereo unspecified) | 84
2 | CC(C)c1c(NC(=O)Nc2cnc(N3CCCS3(=O)=O)c(C(F)(F)F)c2)cnc2cc(Cl)nn12 | 54
3 | CO[C@@H](C)c1c(NC(=O)Nc2cncc(C(F)(F)F)c2)cnc2cc(C)nn12 | 132

molecular target: T1, Mucosa-associated lymphoid tissue lymphoma translocation protein 1 (Homo sapiens, UniProt Q9UDY8); test: Inhibition of MALT1 (unknown origin) expressed in human Jurkat Clone K22 29Q_H23 cells assessed as IL2 production preincubated for 30 mins followed by PMA stimulation for 5.5 hrs by luciferase reporter gene assay; assay type: cell-based
T1 sequence (Q9UDY8 whole entry): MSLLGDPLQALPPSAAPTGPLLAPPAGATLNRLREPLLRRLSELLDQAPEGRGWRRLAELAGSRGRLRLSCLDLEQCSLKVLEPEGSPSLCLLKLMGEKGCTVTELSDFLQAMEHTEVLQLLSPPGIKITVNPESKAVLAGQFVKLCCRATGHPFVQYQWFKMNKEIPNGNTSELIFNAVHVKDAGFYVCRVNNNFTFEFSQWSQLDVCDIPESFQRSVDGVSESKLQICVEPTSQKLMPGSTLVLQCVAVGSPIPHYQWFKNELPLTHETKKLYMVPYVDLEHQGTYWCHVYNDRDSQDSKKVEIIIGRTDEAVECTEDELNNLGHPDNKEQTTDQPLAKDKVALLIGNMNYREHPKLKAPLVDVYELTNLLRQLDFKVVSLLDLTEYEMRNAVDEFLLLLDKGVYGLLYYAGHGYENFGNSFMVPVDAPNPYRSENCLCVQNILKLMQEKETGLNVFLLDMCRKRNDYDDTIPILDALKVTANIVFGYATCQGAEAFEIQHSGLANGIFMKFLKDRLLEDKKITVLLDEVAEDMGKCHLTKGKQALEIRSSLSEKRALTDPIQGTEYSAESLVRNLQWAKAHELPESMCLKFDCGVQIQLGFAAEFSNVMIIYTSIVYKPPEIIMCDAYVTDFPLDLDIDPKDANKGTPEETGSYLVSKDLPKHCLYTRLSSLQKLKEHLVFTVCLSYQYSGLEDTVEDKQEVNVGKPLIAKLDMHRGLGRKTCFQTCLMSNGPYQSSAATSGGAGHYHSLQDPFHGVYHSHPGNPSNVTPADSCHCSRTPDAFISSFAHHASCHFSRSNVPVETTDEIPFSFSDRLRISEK

Row | Compound | IC50 [nM]
4 | COCC(c1c(NC(=O)Nc2cnc(-n3nccn3)c(Cl)c2)cnc2cc(Cl)nn12)C1CC1 (stereo unspecified) | 28
5 | CC(C)c1c(NC(=O)Nc2cnc(N3CCCS3(=O)=O)c(C(F)(F)F)c2)cnc2cc(Cl)nn12 | 248
6 | CO[C@@H](C)c1c(NC(=O)Nc2cncc(C(F)(F)F)c2)cnc2cc(C)nn12 | 52
